{"source": "ChEMBL document CHEMBL5537197", "about": "“Discovery of Novel Coumarin-quinolinium Derivatives as Pan-KRAS Translation Inhibitors by Targeting 5'-UTR RNA G-Quadruplexes” (J Med Chem, 2024)", "key": {"[1]": {"tested_on": "NCM460", "experiment": "Cytotoxicity against human NCM460 cells harboring wild-type KRAS assessed as cell growth inhibition incubated for 24 hrs by MTT assay", "format": "functional, cell-based", "conditions": "NCM460, 24 h"}, "[2]": {"experiment": "Toxicity in BALB/C-nu/nu mouse model xenografted with human MIA PaCa-2 cells assessed as body weight change at 2.5 to 5 mg/kg,ip everyday for 18 days", "format": "organism-based", "conditions": "in vivo, 432 h, dose 2.5-5 mg/kg, time 18 day"}, "[3]": {"biological_target": "GTPase KRas (Homo sapiens) (UniProt P01116)", "sequence (P01116 whole entry, looked up)": "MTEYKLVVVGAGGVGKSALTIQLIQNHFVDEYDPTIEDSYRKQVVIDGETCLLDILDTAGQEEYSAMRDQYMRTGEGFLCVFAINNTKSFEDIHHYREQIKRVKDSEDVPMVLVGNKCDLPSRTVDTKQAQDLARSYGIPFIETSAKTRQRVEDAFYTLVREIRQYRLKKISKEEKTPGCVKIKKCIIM", "experiment": "Inhibition of KRAS in human MIA PaCa-2 cells at 2.5 uM incubated for 24 hrs by Western blot analysis", "format": "cell-based"}, "[4]": {"tested_on": "Quadruplex DNA", "experiment": "Binding affinity to KRAS DNA G-Quadruplex (unknown origin) assessed as melting temperature at 25 uM at 25 to 95 degreeC by CD spectroscopy (reference value: 50.1 degreeC)", "format": "nucleic-acid assay"}, "[5]": {"tested_on": "GTPase KRas (Homo sapiens), P01116 [G12C]", "sequence (P01116 whole entry G12C)": "as the sequence (P01116 whole entry, looked up) above, with G12C counted along it", "experiment": "Inhibition of KRAS G12C mutant in human MIA PaCa-2 cells at 2.5 uM by Western blot analysis", "format": "cell-based", "conditions": "time <= 48.0 hrs, TDE = time-dependent effect"}, "[6]": {"tested_on": "MIA PaCa-2", "experiment": "In vivo inhibition of KRAS in human MIA PaCa-2 cells xenografted in BALB/C-nu/nu mouse model at 2.5 to 5 mg/kg,ip everyday for 18 days by IHC analysis", "format": "functional, organism-based", "conditions": "dose 2.5-5 mg/kg, time 18.0 day"}, "[7]": {"experiment": "Toxicity in BALB/C-nu/nu mouse model xenografted with human MIA PaCa-2 cells assessed as signs of pain at 2.5 to 5 mg/kg,ip everyday for 18 days", "format": "organism-based", "conditions": "in vivo, 432 h, dose 2.5-5 mg/kg, time 18 day"}, "[8]": {"tested_on": "MIA PaCa-2", "experiment": "Effect on KRAS mRNA level in human MIA PaCa-2 cells harboring KRAS G12C mutant at upto 5 uM incubated upto 48 hrs by RT-qPCR analysis", "format": "functional, cell-based"}, "[9]": {"experiment": "Cytotoxicity against human PANC-1 cells […] assessed as cell growth inhibition incubated for 24 hrs by MTT assay", "format": "functional, cell-based", "conditions": "PANC-1, 24 h"}, "[10]": {"experiment": "Toxicity in BALB/C-nu/nu mouse model xenografted with human MIA PaCa-2 cells assessed as signs of distress at 2.5 to 5 mg/kg,ip everyday for 18 days", "format": "organism-based", "conditions": "in vivo, 432 h, dose 2.5-5 mg/kg, time 18 day"}, "[11]": {"tested_on": "MIA PaCa-2", "experiment": "Antitumor activity against human MIA PaCa-2 cells xenografted in BALB/C-nu/nu mouse model assessed as reduction in tumor weight at 2.5 to 5 mg/kg,ip everyday for 18 days", "format": "functional, organism-based", "conditions": "dose 2.5-5 mg/kg, time 18.0 day"}, "[12]": {"tested_on": "GTPase KRas (Homo sapiens), P01116 [G12D]", "sequence (P01116 whole entry G12D, looked up)": "as the sequence (P01116 whole entry, looked up) above, with G12D counted along it", "experiment": "Inhibition of KRAS G12D mutant in human PANC-1 cells incubated for 24 hrs by Western blot analysis", "format": "cell-based", "conditions": "dose <= 5.0 µM"}, "[13]": {"tested_on": "NCI-H358", "experiment": "Cytotoxicity against human NCI-H358 cells harboring KRAS G12C mutant assessed as cell growth inhibition incubated for 24 hrs by MTT assay", "format": "functional, cell-based", "conditions": "NCI-H358, 24 h"}, "[14]": {"tested_on": "Quadruplex RNA", "experiment": "Binding affinity to KRAS RNA G-Quadruplex (unknown origin) assessed as melting temperature at 25 uM at 25 to 95 degreeC by CD spectroscopy (reference value: 71.4 degreeC)", "format": "nucleic-acid assay"}, "[15]": {"tested_on": "HPAF-II", "experiment": "Cytotoxicity against human HPAF-II cells harboring KRAS G12D mutant assessed as cell growth inhibition incubated for 24 hrs by MTT assay", "format": "functional, cell-based"}, "[16]": {"tested_on": "PANC-1", "experiment": "Effect on NRAS level in human PANC-1 cells harboring KRAS G12D mutant at 1.25 to 5 uM by Western blot analysis", "format": "functional, cell-based", "conditions": "dose 1.25-5 µM"}, "[17]": {"tested_on": "MIA PaCa-2", "experiment": "Induction of apoptosis in human MIA PaCa-2 cells assessed as increase in caspase-3 cleavage by Western blot analysis", "format": "functional, cell-based", "conditions": "dose 1.25-5 µM"}, "[18]": {"tested_on": "PANC-1", "experiment": "Effect on KRAS mRNA level in human PANC-1 cells harboring KRAS G12D mutant at upto 5 uM incubated upto 48 hrs by RT-qPCR analysis", "format": "functional, cell-based"}, "[19]": {"tested_on": "MIA PaCa-2", "experiment": "Antitumor activity against human MIA PaCa-2 cells xenografted in BALB/C-nu/nu mouse model assessed as tumor growth inhibition at 2.5 mg/kg,ip everyday for 18 days relative to control", "format": "functional", "conditions": "MIA PaCa-2, 432 h, time 18 day, read-out: TGI"}, "[20]": {"tested_on": "GTPase KRas (Homo sapiens), P01116 [G12C]", "experiment": "Inhibition of KRAS G12C mutant in human NCI-H358 cells at 2.5 uM by Western blot analysis", "format": "cell-based", "conditions": "time <= 48.0 hrs, TDE = time-dependent effect"}, "[21]": {"tested_on": "GTPase KRas (Homo sapiens), P01116 [G12C]", "experiment": "Inhibition of KRAS G12C mutant in human MIA PaCa-2 cells incubated for 24 hrs by Western blot analysis", "format": "cell-based", "conditions": "dose <= 5.0 µM"}, "[22]": {"tested_on": "MIA PaCa-2", "experiment": "Effect on total protein level in human MIA PaCa-2 cells at 2.5 uM incubated for upto 24 hrs by Western blot analysis", "format": "functional, cell-based"}, "[23]": {"experiment": "Toxicity in BALB/C-nu/nu mouse model xenografted with human MIA PaCa-2 cells assessed as signs of discomfort at 2.5 to 5 mg/kg,ip everyday for 18 days", "format": "organism-based", "conditions": "in vivo, 432 h, dose 2.5-5 mg/kg, time 18 day"}, "[24]": {"experiment": "Toxicity in BALB/C-nu/nu mouse model xenografted with human MIA PaCa-2 cells assessed as drug tolerance at 2.5 to 5 mg/kg,ip everyday for 18 days", "format": "organism-based", "conditions": "in vivo, 432 h, dose 2.5-5 mg/kg, time 18 day"}, "[25]": {"biological_target": "GTPase KRas (Homo sapiens) (UniProt P01116)", "experiment": "Inhibition of KRAS in human PANC-1 cells at 2.5 uM incubated for 24 hrs by Western blot analysis", "format": "cell-based"}, "[26]": {"biological_target": "Quadruplex DNA", "experiment": "Binding affinity to HP12 G-Quadruplex (unknown origin) assessed as dissociation constant by fluorescence spectroscopy", "format": "nucleic-acid assay"}, "[27]": {"biological_target": "GTPase KRas (Homo sapiens) (UniProt P01116)", "experiment": "Inhibition of KRAS in human MIA PaCa-2 cells assessed as decrease in AKT phosphorylation at 2.5 uM by Western blot analysis", "format": "cell-based", "conditions": "time <= 24.0 hrs, TDE = time-dependent effect"}, "[28]": {"experiment": "Cytotoxicity against human HFL1 cells harboring wild-type KRAS assessed as cell growth inhibition incubated for 24 hrs by MTT assay", "format": "toxicity, cell-based"}, "[29]": {"biological_target": "GTPase KRas (Homo sapiens) (UniProt P01116)", "experiment": "Inhibition of KRAS in human MIA PaCa-2 cells assessed as decrease in MEK phosphorylation incubated for 24 hrs by Western blot analysis", "format": "cell-based", "conditions": "dose 1.25-5 µM"}, "[30]": {"biological_target": "Quadruplex DNA", "experiment": "Binding affinity to SS12 G-Quadruplex (unknown origin) assessed as dissociation constant by fluorescence spectroscopy", "format": "nucleic-acid assay"}, "[31]": {"tested_on": "MIA PaCa-2", "experiment": "Effect on total KRAS mRNA level in human MIA PaCa-2 cells xenografted in BALB/C-nu/nu mouse model at 2.5 to 5 mg/kg,ip everyday for 18 days by RT-qPCR analysis", "format": "functional, organism-based", "conditions": "dose 2.5-5 mg/kg, time 18.0 day"}, "[32]": {"tested_on": "PANC-1", "experiment": "Cytotoxicity against human PANC-1 cells overexpressing KRAS G12D mutant assessed as cell death incubated for 24 hrs by MTT assay", "format": "functional, cell-based"}, "[33]": {"biological_target": "GTPase KRas (Homo sapiens) (UniProt P01116)", "experiment": "Inhibition of KRAS in human MIA PaCa-2 cells assessed as decrease in MEK phosphorylation at 2.5 uM by Western blot analysis", "format": "cell-based", "conditions": "time <= 24.0 hrs, TDE = time-dependent effect"}, "[34]": {"tested_on": "MIA PaCa-2", "experiment": "Inhibition of cell proliferation of human MIA PaCa-2 cells at 0.32 to 1.25 uM incubated for 10 days by colony formation assay relative to control", "format": "functional", "conditions": "dose 0.32-1.25 µM, time 10 day"}, "[35]": {"biological_target": "GTPase KRas (Homo sapiens) (UniProt P01116)", "experiment": "Inhibition of KRAS in human MIA PaCa-2 cells assessed as decrease in mTOR phosphorylation incubated for 24 hrs by Western blot analysis", "format": "cell-based", "conditions": "dose 1.25-5 µM"}, "[36]": {"tested_on": "SW-620", "experiment": "Cytotoxicity against human SW620 cells harboring KRAS G12V mutant assessed as cell growth inhibition incubated for 24 hrs by MTT assay", "format": "functional, cell-based", "conditions": "SW-620, 24 h"}}, "note": "Calls of active or inactive are those of the source. The calls are words filed in the database; no cut-off is given here."}
{"smiles": "CCN(CC)c1ccc2cc(/C=C/c3ccc4cc(F)c(NCCN5CCCC5)cc4[n+]3C)c(=O)oc2c1.[I-]", "values": [{"measurement": "IC50", "setting": "[1]", "value": "> 40", "unit": "µM"}, {"measurement": "Activity", "setting": "[2]", "value": "Non-Toxic"}, {"measurement": "inhibition", "setting": "[3]", "value": "Active"}, {"measurement": "Tm", "setting": "[4]", "value": 52, "unit": "°C"}, {"measurement": "inhibition", "setting": "[5]", "value": "Tde"}, {"measurement": "Activity", "setting": "[6]", "value": "Active"}, {"measurement": "Activity", "setting": "[7]", "value": "Non-Toxic"}, {"measurement": "Activity", "setting": "[8]", "value": "inactive"}, {"measurement": "IC50", "setting": "[9]", "value": "> 40", "unit": "µM"}, {"measurement": "Activity", "setting": "[10]", "value": "Non-Toxic"}, {"measurement": "Activity", "setting": "[11]", "value": "Active"}, {"measurement": "inhibition", "setting": "[12]", "value": "Dose-Dependent Effect"}, {"measurement": "IC50", "setting": "[13]", "value": 4.8, "unit": "µM"}, {"measurement": "Tm", "setting": "[14]", "value": 51.3, "unit": "°C"}, {"measurement": "IC50", "setting": "[15]", "value": 5.4, "unit": "µM"}, {"measurement": "Activity", "setting": "[16]", "value": "inactive"}, {"measurement": "Activity", "setting": "[17]", "value": "Dose-Dependent Effect"}, {"measurement": "Activity", "setting": "[18]", "value": "inactive"}, {"measurement": "inhibition in vivo at 2.5 mg/kg", "setting": "[19]", "value": 62, "unit": "%"}, {"measurement": "inhibition", "setting": "[20]", "value": "Tde"}, {"measurement": "inhibition", "setting": "[21]", "value": "Dose-Dependent Effect"}, {"measurement": "Activity", "setting": "[22]", "value": "inactive"}, {"measurement": "Activity", "setting": "[23]", "value": "Non-Toxic"}, {"measurement": "Activity", "setting": "[24]", "value": "Non-Toxic"}, {"measurement": "inhibition", "setting": "[25]", "value": "Active"}, {"measurement": "Kd", "setting": "[26]", "value": "> 5", "unit": "µM"}, {"measurement": "inhibition", "setting": "[27]", "value": "Tde"}, {"measurement": "IC50 at 24 h", "setting": "[28]", "value": "> 40", "unit": "µM"}, {"measurement": "inhibition", "setting": "[29]", "value": "Dose-Dependent Effect"}, {"measurement": "Kd", "setting": "[30]", "value": "> 5", "unit": "µM"}, {"measurement": "Activity", "setting": "[31]", "value": "inactive"}, {"measurement": "Activity", "setting": "[32]", "value": "inactive"}, {"measurement": "inhibition", "setting": "[33]", "value": "Tde"}, {"measurement": "inhibition (INH)", "setting": "[34]", "value": 100, "unit": "%"}, {"measurement": "inhibition", "setting": "[35]", "value": "Dose-Dependent Effect"}, {"measurement": "IC50", "setting": "[36]", "value": 5.1, "unit": "µM"}]}
